Tested on: HCT116 colorectal cancer cells
Assay: Cisplatin sensitization assay (96 h cell viability MTS);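 further: compound concentration needed to lower the Cisplatin-alone IC50 by a set fold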
Format: cell-based
Conditions: 96 h MTS, compound plus Cisplatin
In short: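 Cisplatin and compound are dosed at the same time, both serially diluted 2-fold from 10 μM final across a full matrix. Plates sit at 37° C in 5% CO2 for 96 h before MTS addition.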

| SMILES | Cisplatin Sensitization Assay |
| --- | --- |
| Nc1nn2cc(Cl)cnc2c1C(=O)Nc1cnccc1O[C@H]1CCOC1 [I-O-58, (S)-2-amino-6-chloro-N-(4-((tetrahydrofuran-3-yl)oxy)pyridin-3-yl)pyrazolo[1,5-a]pyrimidine-3-carboxamide] | +++ (Compounds with a Cisplatin sensitization value of <0.02 μM are marked with “+++.”) |
| COCCN(C)C(=O)C1CCN(c2c(F)cncc2NC(=O)c2c(N)nn3cc(F)cnc23)CC1 [I-G-40, 2-amino-6-fluoro-N-(5-fluoro-4-(4-((2-methoxyethyl)(methyl)carbamoyl)piperidin-1-yl)pyridin-3-yl)pyrazolo[1,5-a]pyrimidine-3-carboxamide] | +++ (Compounds with a Cisplatin sensitization value of <0.02 μM are marked with “+++.”) |
| Cc1nncn1-c1ccncc1NC(=O)c1c(N)nn2cc(F)cnc12 [I-N-263, 2-amino-6-fluoro-N-(4-(3-methyl-4H-1,2,4-triazol-4-yl)pyridin-3-yl)pyrazolo[1,5-a]pyrimidine-3-carboxamide] | + (Compounds with a Cisplatin sensitization value >0.2 μM but <5 μM are marked with “+.”) |
| Nc1nn2cc(F)cnc2c1C(=O)Nc1cnccc1C1CCN(C2COC2)CC1 [I-C-10, 2-amino-6-fluoro-N-(4-(1-(oxetan-3-yl)piperidin-4-yl)pyridin-3-yl)pyrazolo[1,5-a]pyrimidine-3-carboxamide] | +++ (Compounds with a Cisplatin sensitization value of <0.02 μM are marked with “+++.”) |
| Nc1nn2cc(F)cnc2c1C(=O)Nc1cncc(F)c1N1CCC(c2nccs2)CC1 [I-N-184, 2-amino-6-fluoro-N-(5-fluoro-4-(4-(thiazol-2-yl)piperidin-1-yl)pyridin-3-yl)pyrazolo[1,5-a]pyrimidine-3-carboxamide] | ++ (Compounds with a Cisplatin sensitization value >0.02 μM but <0.2 μM are marked with “++.”) |
| Cc1nc(N2CCN(C)CC2)ccc1-c1ccncc1NC(=O)c1c(N)nn2cc(F)cnc12 [I-C-40, 2-amino-6-fluoro-N-(2-methyl-6-(4-methylpiperazin-1-yl)-[3,4′-bipyridin]-3′-yl)pyrazolo[1,5-a]pyrimidine-3-carboxamide] | +++ (Compounds with a Cisplatin sensitization value of <0.02 μM are marked with “+++.”) |
| Nc1nn2cc(F)cnc2c1C(=O)Nc1cnccc1N1CCC(c2nnco2)CC1 [I-N-268, N-(4-(4-(1,3,4-oxadiazol-2-yl)piperidin-1-yl)pyridin-3-yl)-2-amino-6-fluoropyrazolo[1,5-a]pyrimidine-3-carboxamide] | +++ (Compounds with a Cisplatin sensitization value of <0.02 μM are marked with “+++.”) |
| Nc1nn2cc(F)cnc2c1C(=O)Nc1cncc(F)c1N1CCC(C(=O)N2CCNCC2)CC1 [I-G-12, 2-amino-6-fluoro-N-(5-fluoro-4-(4-(piperazine-1-carbonyl)piperidin-1-yl)pyridin-3-yl)pyrazolo[1,5-a]pyrimidine-3-carboxamide] | +++ (Compounds with a Cisplatin sensitization value of <0.02 μM are marked with “+++.”) |
| CN1CCC(C(=O)N2CC=C(c3c(F)cncc3NC(=O)c3c(N)nn4cc(F)cnc34)CC2)CC1 [I-C-38, 2-amino-6-fluoro-N-(5-fluoro-1′-(1-methylpiperidine-4-carbonyl)-1′,2′,3′,6′-tetrahydro-[4,4′-bipyridin]-3-yl)pyrazolo[1,5-a]pyrimidine-3-carboxamide] | ++ (Compounds with a Cisplatin sensitization value >0.02 μM but <0.2 μM are marked with “++.”) |
| COc1ccncc1NC(=O)c1c(N)nn2cc(Cl)cnc12 [I-O-57, 2-amino-6-chloro-N-(4-methoxypyridin-3-yl)pyrazolo[1,5-a]pyrimidine-3-carboxamide] | +++ (Compounds with a Cisplatin sensitization value of <0.02 μM are marked with “+++.”) |
| CN(C)CCCNC(=O)C1CCN(c2c(F)cncc2NC(=O)c2c(N)nn3cc(F)cnc23)CC1 [I-G-26, 2-amino-N-(4-(4-((3-(dimethylamino)propyl)carbamoyl)piperidin-1-yl)-5-fluoropyridin-3-yl)-6-fluoropyrazolo[1,5-a]pyrimidine-3-carboxamide] | ++ (Compounds with a Cisplatin sensitization value >0.02 μM but <0.2 μM are marked with “++.”) |
| CN1CCN(c2ccncc2NC(=O)c2c(N)nn3cc(C(C)(C)C#N)cnc23)CC1 [I-N-76, 2-amino-6-(2-cyanopropan-2-yl)-N-(4-(4-methylpiperazin-1-yl)pyridin-3-yl)pyrazolo[1,5-a]pyrimidine-3-carboxamide] | +++ (Compounds with a Cisplatin sensitization value of <0.02 μM are marked with “+++.”) |
| CC(C)(C#N)c1cnc2c(C(=O)Nc3cnccc3N3CCN(C4COC4)CC3)c(N)nn2c1 [I-N-142, 2-amino-6-(2-cyanopropan-2-yl)-N-(4-(4-(oxetan-3-yl)piperazin-1-yl)pyridin-3-yl)pyrazolo[1,5-a]pyrimidine-3-carboxamide] | ++ (Compounds with a Cisplatin sensitization value >0.02 μM but <0.2 μM are marked with “++.”) |
| N#CCc1cnc2c(C(=O)Nc3cnccc3OC3CNC3)c(N)nn2c1 [I-O-82, 2-amino-N-(4-(azetidin-3-yloxy)pyridin-3-yl)-6-(cyanomethyl)pyrazolo[1,5-a]pyrimidine-3-carboxamide] | ++ (Compounds with a Cisplatin sensitization value >0.02 μM but <0.2 μM are marked with “++.”) |
| CN1CCOC2(CCN(c3c(F)cncc3NC(=O)c3c(N)nn4cc(F)cnc34)CC2)C1 [I-N-272, 2-amino-6-fluoro-N-(5-fluoro-4-(4-methyl-1-oxa-4,9-diazaspiro[5.5]undecan-9-yl)pyridin-3-yl)pyrazolo[1,5-a]pyrimidine-3-carboxamide] | +++ (Compounds with a Cisplatin sensitization value of <0.02 μM are marked with “+++.”) |
| CN1CCC(S(=O)(=O)N2CCN(c3ccncc3NC(=O)c3c(N)nn4cc(F)cnc34)CC2)CC1 [I-N-188, 2-amino-6-fluoro-N-(4-(4-((1-methylpiperidin-4-yl)sulfonyl)piperazin-1-yl)pyridin-3-yl)pyrazolo[1,5-a]pyrimidine-3-carboxamide] | +++ (Compounds with a Cisplatin sensitization value of <0.02 μM are marked with “+++.”) |
| CN1CC2CC1CN2C(=O)C1CCN(c2c(F)cncc2NC(=O)c2c(N)nn3cc(F)cnc23)CC1 (centres unmarked) [I-G-53, 2-amino-6-fluoro-N-(5-fluoro-4-(4-(5-methyl-2,5-diazabicyclo[2.2.1]heptane-2-carbonyl)piperidin-1-yl)pyridin-3-yl)pyrazolo[1,5-a]pyrimidine-3-carboxamide] | +++ (Compounds with a Cisplatin sensitization value of <0.02 μM are marked with “+++.”) |
| Nc1nn2cc(F)cnc2c1C(=O)Nc1cncc(Cl)c1N1CCC(C(=O)N2CCNCC2)CC1 [I-G-48, 2-amino-N-(5-chloro-4-(4-(piperazine-1-carbonyl)piperidin-1-yl)pyridin-3-yl)-6-fluoropyrazolo[1,5-a]pyrimidine-3-carboxamide] | +++ (Compounds with a Cisplatin sensitization value of <0.02 μM are marked with “+++.”) |
| N#CCc1cnc2c(C(=O)Nc3cnccc3O[C@H]3CCOC3)c(N)nn2c1 [I-O-42, (S)-2-amino-6-(cyanomethyl)-N-(4-((tetrahydrofuran-3-yl)oxy)pyridin-3-yl)pyrazolo[1,5-a]pyrimidine-3-carboxamide] | +++ (Compounds with a Cisplatin sensitization value of <0.02 μM are marked with “+++.”) |
| Nc1nn2cc(Cl)cnc2c1C(=O)Nc1cnccc1N1CCn2ccnc2C1 [I-N-44, 2-amino-6-chloro-N-(4-(5,6-dihydroimidazo[1,2-a]pyrazin-7(8H)-yl)pyridin-3-yl)pyrazolo[1,5-a]pyrimidine-3-carboxamide] | ++ (Compounds with a Cisplatin sensitization value >0.02 μM but <0.2 μM are marked with “++.”) |
| Nc1nn2cc(F)cnc2c1C(=O)Nc1cncc(F)c1N1CCC(C(=O)N2CC[C@H](N3CCCC3)C2)CC1 [I-G-58, (S)—N-(4-(4-([1,3′-bipyrrolidine]-1′-carbonyl)piperidin-1-yl)-5-fluoropyridin-3-yl)-2-amino-6-fluoropyrazolo[1,5-a]pyrimidine-3-carboxamide] | +++ (Compounds with a Cisplatin sensitization value of <0.02 μM are marked with “+++.”) |
| Nc1nn2cc(F)cnc2c1C(=O)Nc1cnccc1N1CCC(C(=O)N2CC(F)C2)CC1 [I-G-82, 2-amino-6-fluoro-N-(4-(4-(3-fluoroazetidine-1-carbonyl)piperidin-1-yl)pyridin-3-yl)pyrazolo[1,5-a]pyrimidine-3-carboxamide] | +++ (Compounds with a Cisplatin sensitization value of <0.02 μM are marked with “+++.”) |
| CN(C)C(=O)C1CCN(c2ccncc2NC(=O)c2c(N)nn3cc(F)cnc23)CC1 [I-G-2, 2-amino-N-(4-(4-(dimethylcarbamoyl)piperidin-1-yl)pyridin-3-yl)-6-fluoropyrazolo[1,5-a]pyrimidine-3-carboxamide] | +++ (Compounds with a Cisplatin sensitization value of <0.02 μM are marked with “+++.”) |
| C[N+]1([O-])CCc2c(cncc2NC(=O)c2c(N)nn3cc(F)cnc23)C1 (centres unmarked) [I-C-9, 5-(2-amino-6-fluoropyrazolo[1,5-a]pyrimidine-3-carboxamido)-2-methyl-1,2,3,4-tetrahydro-2,7-naphthyridine 2-oxide] | + (Compounds with a Cisplatin sensitization value >0.2 μM but <5 μM are marked with “+.”) |
| Cc1nccn1-c1ccncc1NC(=O)c1c(N)nn2cc(F)cnc12 [I-N-28, 2-amino-6-fluoro-N-(4-(2-methyl-1H-imidazol-1-yl)pyridin-3-yl)pyrazolo[1,5-a]pyrimidine-3-carboxamide] | +++ (Compounds with a Cisplatin sensitization value of <0.02 μM are marked with “+++.”) |
| Nc1nn2cc(F)cnc2c1C(=O)Nc1cnccc1O[C@H]1CN2CCC1CC2 [I-O-5, (R)-2-amino-6-fluoro-N-(4-(quinuclidin-3-yloxy)pyridin-3-yl)pyrazolo[1,5-a]pyrimidine-3-carboxamide] | +++ (Compounds with a Cisplatin sensitization value of <0.02 μM are marked with “+++.”) |

Reference: patent US10787452B2 (Vertex Pharmaceuticals Incorporated, priority 2012, dated 2020)
